Test results from patent publication US20110177002A1, “CYLIC POLYAMINES FOR BINDING PHOSPHATIDYLSERINE” (BAYER SCHERING PHARMA AKTIENGESELLSCHAFT, priority 2008, published 2011).

Assays:
[1] = test system: Jurkat cells induced with staurosporin; test: Confocal microscopy on apoptosis induced Jurkat cells; format: cell-based; settings: 5 μM compound, 15 min at RT
Procedure: In order to verify the FACS data with visual data confocal microscopy was performed. Confocal microscopy was also performed on Jurkat cells and apoptosis was induced by incubating 10^6 cells/ml in 1 μM staurosporin for 4 h (Stepczynska A et al, Staurosporine and conventional anticancer drugs induce overlapping, yet distinct pathways of apoptosis and caspase activation Oncogene (2001) 20, 1193). The experiments were also carried out in TES-buffer. For compound binding 10^6 cells (either induced with staurosporin or non-induced) were incubated for 15 min at RT in 100 μl cold TES buffer with a final concentration of 5 μM compound, then the cells were fixed onto polylysine coated slides and shortly incubated with propidium iodine (PI).

[2] = test system: staurosporine treated Jurkat cells; test: FACS flow cytometry, apoptosis detection on staurosporine treated Jurkat cells with propidium iodide discrimination; format: cell-based; settings: for labeling pattern in direct comparison with Annexin-V: apoptosis induced Jurkat cells, co-incubation, FIG. 10
Excerpt: Flow cytometry is a technology for counting and examining cells which pass in a flow of single cells through a laser beam. The laser light scatter provides information about cell features. The forward scatter (FSC) depends basically on the size of the cell, whereas the side scatter (SSC) is used to measure the granularity of the cell. Furthermore, if the cells carry fluorescence dyes, the respective fluorescence signal can be detected.
Flow cytometry is a widely applied technique in cell biology. Especially in the research of cell death mechanisms it is a standard procedure to count and differentiate between apoptotic, necrotic and healthy cells. For the detection of apoptosis the protein Annexin V is applied which is usually attached to a green fluorescence dye. Because Annexin V can also bind to necrotic cells, the red fluorescent nuclear stain propidium iodide is simultaneously applied as a necrosis marker.
The resulting fluorescence diagrams that are obtained from a flow cytometry procedure with Annexin V and propidium iodide are shown below. The detection channel for green fluorescence is termed FL-I (FIG. 4), the one for red fluorescence FL-III (FIG. 4). The plot of cell number (counts) versus FL-I intensity is called histogram. The fluorescence signal of the sample is always accompanied by a second signal at low intensities (left in the histogram) which is background fluorescence. By plotting the red fluorescence versus the green fluorescence (FL-I/FL-III-plot) a diagram is obtained in which the cells can be divided into red, green and red+green fluorescent cells. After gating the signals into four quadrant regions (Q1-Q4) (FIG. 4), the percentages of the differently stained cells is indicated in the diagram.
FACS measurements were performed with a DAKO Galaxy Flow Cytometry System using the following experimental setup: Jurkat-cells were grown to a density of about 1*10^6 cells/ml. Apoptosis was induced by adding 1 μmol/l staurosporine (Stepczynska A et al, Staurosporine and conventional anticancer drugs induce overlapping, yet distinct pathways of apoptosis and caspase activation, Oncogene (2001) 20, 1193). After incubation for 4 h at 37° C., the cells were washed with cold PBS-buffer (140 mmol/l NaCl, 10 mmol/l KCl, 6.4 mmol/l Na2HPO4, 2 mmol/l KH2PO4) and resuspended in cold TES-buffer (5 mmol/l TES, 145 mmol/l NaCl). 10^6 cells in 100 μl buffer with 1 μl of a 0.5 mmol/l aqueous solution of complex 1 were incubated for 15 minutes at 37° C. Subsequently, cells were washed twice with 500 μl TES-buffer and the cells were resuspended in 400 μl TES-buffer. 100 μl of the probe were diluted with 900 μl of buffer and measured immediately. To discriminate against necroses, 10 μl propidiumiodide solution (250 μg/ml) were added directly before the measurement.

[3] = test system: cells which expose phosphatidylserine; settings: cited from earlier work
[4] = Zn^2+ complexation; cited from earlier work
apoptotic liver = test: Biodistribution after induction of hepatic apoptosis with Cycloheximid; format: in vivo, male Balb/c mice; settings: i.v., 3.5 h after induction of hepatic apoptosis
Procedure: The biodistribution was performed in male Balb/c mice (6-8 weeks, body weight approx. 20 g). Hepatic apoptosis were induced by intraperitoneal injection of Cycloheximid ([…] in 500 μL PBS) (J. F. Tait, C. Smith, Z. Levashova, B. Patel, F. G. Blankenberg, J. Vanderheyden, J. Nucl. Med. 2006, 47, 1546). 1.5 h and 3.5 h after induction of hepatic apoptosis the 18F-labeled compound was injected i.v. (1-2 MBq in 100 μL PBS). The organ distribution was done after 30 min, 1 h, 2 h and 3 h. The amount of 18F-compound was determined by gamma counter.

[5] = test system: adenocarcinoma (Prostata) R3327-ATI; test: PET imaging in radiation tumor model; format: in vivo, Male Copenhagen rats; settings: day 6 and day 10 after 50 Gy radiation, i.v.
Excerpt: The PET images were obtained using a radiation model. Male Copenhagen rats with approx. 180 g body weight were transplanted with the hormone independent adenocarcinoma (Prostata) R3327-ATI on the left and right upper leg. The left tumor, as it reached a size of 3.5 cm^3 was radiated by linear particle accelerator with a single dosis of 50 Gy, whereas the right tumor served as control.
One day prior to the radiation as well as 6 and 10 d after radiation, the 18F-compound 19 (15-25 MBq in ca. 200 μL PBS) was injected i.v. and PET-aquisition with 1 h dynamic PET measurements were performed.

CCN(CC)c1ccc2c(-c3ccc(NC(=S)NCCOCCOCCOc4cc(CN5CCNCCNCCNCC5)cc(CN5CCNCCNCCNCC5)c4)cc3C(=O)O)c3ccc(=[N+](CC)CC)cc-3oc2c1 [compound AB]
uptake / labeling of cells in confocal microscopy [1]: labeling of apoptotic and necrotic cells | labeling pattern in direct comparison with Annexin-V [2]: labeling apoptotic cells in Q2 and necrotic cells in Q4

Anx V: phosphatidylserine-binding protein, fluorescent dye labeled, standard apoptosis sensor
Kd [3]: < 0.1 nM | uptake / labeling of cells in confocal microscopy [1]: green membrane staining | labeling pattern in direct comparison with Annexin-V [2]: labels apoptotic cells in Q1 and Q2 | % apoptosis (green) ([2]; staurosporine treated Jurkat cells, green fluorescence only): 22% | % necrosis (PI) (red) ([2]; staurosporine treated Jurkat cells, propidium iodide red only): 18% | % necrosis/ late apoptosis (red + green) ([2]; staurosporine treated Jurkat cells, red + green): 25%

O=C(NCCOCCOCCOc1cc(COc2cc(CN3CCNCCNCCNCC3)cc(CN3CCNCCNCCNCC3)c2)cc(COc2cc(CN3CCNCCNCCNCC3)cc(CN3CCNCCNCCNCC3)c2)c1)c1ccc(-c2c3ccc(=O)cc-3oc3cc(O)ccc23)c(C(=O)O)c1 [compound we]
median fluorescence intensity ([2]; induced apoptotic Jurkat cells, FIG. 11): 130 | effect of Zn^2+ complexation on binding ([2]; with versus without Zn^2+): same effect

c1ccc(CNCc2ccccn2)nc1 [DPA, 2,2-dipicolylamine]
stability constant [4]: 10^5 (mol/l)^−1

[18F]CCOc1cc(CN2CCNCCNCCNCC2)cc(CN2CCNCCNCCNCC2)c1 [compound 19]
time the liver signal was stable (apoptotic liver): more than 3 h | accumulation in the apoptotic liver (apoptotic liver; as early as 30 min after injection): accumulation in the apoptotic liver | accumulation in irradiated tumor in comparison to the control tumor (PET) [5]: increase in accumulation
